From publication PMC8548913, “Piezo1–Pannexin1 complex couples force detection to ATP secretion in cholangiocytes” (The Journal of General Physiology, 2021)

Target: T1, Piezo1 (Mus musculus, UniProt E2JF22)
T1 construct: native full-length channel in primary cultured cholangiocytes (DIV5) from intrahepatic bile duct units; monomer ~290 kD band reported for GFP-tagged protein
Assay: Fura-2 ratiometric Ca2+ imaging
Format: cell-based
Conditions: agonist; native DIV5 mouse cholangiocytes, 2.5 mM external Ca2+; Yoda1 without effect in Piezo1-knockout HEK293T cells; read-out: apparent EC50
Text: Fura-2 ratiometric Ca2+ imaging on Piezo1 | Concentration-response profile for Yoda1 in mouse DIV5 cholangiocytes, yielding apparent EC50

T1 sequence (E2JF22 whole entry): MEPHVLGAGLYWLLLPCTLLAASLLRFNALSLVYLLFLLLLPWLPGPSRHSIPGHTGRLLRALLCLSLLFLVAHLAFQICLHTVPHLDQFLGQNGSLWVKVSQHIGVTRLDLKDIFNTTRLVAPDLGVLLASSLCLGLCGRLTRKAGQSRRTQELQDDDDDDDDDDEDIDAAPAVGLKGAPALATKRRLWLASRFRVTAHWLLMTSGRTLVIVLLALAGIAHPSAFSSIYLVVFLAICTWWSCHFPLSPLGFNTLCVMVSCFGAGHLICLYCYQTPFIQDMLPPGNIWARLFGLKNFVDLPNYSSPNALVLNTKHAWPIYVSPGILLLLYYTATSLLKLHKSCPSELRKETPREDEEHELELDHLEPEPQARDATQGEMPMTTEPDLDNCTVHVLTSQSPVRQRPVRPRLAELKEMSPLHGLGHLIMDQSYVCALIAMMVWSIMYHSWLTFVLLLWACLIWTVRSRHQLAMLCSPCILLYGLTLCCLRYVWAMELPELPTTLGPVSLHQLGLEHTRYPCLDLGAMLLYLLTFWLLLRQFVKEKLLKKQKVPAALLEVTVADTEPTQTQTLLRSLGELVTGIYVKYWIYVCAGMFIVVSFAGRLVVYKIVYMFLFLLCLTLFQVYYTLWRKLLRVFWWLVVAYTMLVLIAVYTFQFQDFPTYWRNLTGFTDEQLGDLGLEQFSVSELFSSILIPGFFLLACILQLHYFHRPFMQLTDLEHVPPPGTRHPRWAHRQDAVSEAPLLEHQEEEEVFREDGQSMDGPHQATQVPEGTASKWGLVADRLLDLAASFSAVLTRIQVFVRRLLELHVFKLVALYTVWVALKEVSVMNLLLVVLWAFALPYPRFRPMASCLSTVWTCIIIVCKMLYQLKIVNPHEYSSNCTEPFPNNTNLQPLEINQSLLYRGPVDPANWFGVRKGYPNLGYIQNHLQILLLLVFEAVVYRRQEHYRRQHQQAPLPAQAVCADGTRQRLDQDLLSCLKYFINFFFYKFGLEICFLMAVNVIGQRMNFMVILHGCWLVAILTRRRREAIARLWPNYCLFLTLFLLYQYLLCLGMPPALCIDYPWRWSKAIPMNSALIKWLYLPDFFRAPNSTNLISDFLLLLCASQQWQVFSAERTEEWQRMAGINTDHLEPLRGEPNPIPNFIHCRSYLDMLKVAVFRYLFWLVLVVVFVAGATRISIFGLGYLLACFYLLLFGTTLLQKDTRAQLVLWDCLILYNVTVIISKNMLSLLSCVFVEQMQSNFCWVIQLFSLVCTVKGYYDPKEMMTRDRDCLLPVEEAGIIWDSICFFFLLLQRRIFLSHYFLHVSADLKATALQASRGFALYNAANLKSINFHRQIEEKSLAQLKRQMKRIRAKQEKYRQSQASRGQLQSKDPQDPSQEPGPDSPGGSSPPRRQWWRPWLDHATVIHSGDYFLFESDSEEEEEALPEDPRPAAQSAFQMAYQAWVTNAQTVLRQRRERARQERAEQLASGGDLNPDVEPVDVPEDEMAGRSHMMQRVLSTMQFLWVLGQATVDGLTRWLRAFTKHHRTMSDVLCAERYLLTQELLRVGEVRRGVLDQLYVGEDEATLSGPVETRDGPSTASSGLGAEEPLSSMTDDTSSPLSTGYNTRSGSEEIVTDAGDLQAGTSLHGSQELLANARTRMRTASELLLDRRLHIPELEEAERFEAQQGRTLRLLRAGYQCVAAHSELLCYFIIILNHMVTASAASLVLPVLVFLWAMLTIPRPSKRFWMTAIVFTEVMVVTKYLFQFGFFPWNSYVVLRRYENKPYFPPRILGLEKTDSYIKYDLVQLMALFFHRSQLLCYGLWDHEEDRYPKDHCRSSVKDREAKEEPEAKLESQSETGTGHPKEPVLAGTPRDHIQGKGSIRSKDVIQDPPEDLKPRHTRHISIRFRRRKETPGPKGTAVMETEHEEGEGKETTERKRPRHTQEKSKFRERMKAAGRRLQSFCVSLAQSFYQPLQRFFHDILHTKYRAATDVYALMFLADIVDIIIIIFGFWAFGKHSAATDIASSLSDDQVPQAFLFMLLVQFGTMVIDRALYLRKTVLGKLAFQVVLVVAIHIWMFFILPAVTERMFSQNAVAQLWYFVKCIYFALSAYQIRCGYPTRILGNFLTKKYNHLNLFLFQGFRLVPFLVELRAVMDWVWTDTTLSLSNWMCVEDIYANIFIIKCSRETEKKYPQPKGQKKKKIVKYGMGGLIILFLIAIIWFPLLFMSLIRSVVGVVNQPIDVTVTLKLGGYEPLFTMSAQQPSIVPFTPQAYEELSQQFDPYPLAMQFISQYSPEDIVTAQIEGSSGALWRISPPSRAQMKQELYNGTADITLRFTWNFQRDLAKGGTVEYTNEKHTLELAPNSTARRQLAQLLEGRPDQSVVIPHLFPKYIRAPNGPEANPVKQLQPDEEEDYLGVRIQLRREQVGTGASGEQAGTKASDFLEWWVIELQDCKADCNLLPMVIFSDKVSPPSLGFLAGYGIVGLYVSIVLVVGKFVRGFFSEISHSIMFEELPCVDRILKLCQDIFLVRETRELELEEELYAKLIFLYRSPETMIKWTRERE

Clc1cccc(Cl)c1CSc1nnc(-c2cnccn2)s1 [Yoda1]
EC50: 29.4 ± 1.25 µM
